Values of other authors, collected in patent US12171237B2, “Insect repelling compositions and methods of manufacture thereof” (priority 2019, dated 2024).
“Also recorded” adds a separate entry of the source. Like-named read-outs stand apart in the source and are kept apart here.

Legend:
Ae. albopictus = conditions: 1 h, 1.92 μg·cm^−2
Ae. aegypti = conditions: 1 h, 1.92 μg·cm^−2
female Ae. aegypti = conditions: Human-bait assay
female Ae. albopictus = conditions: spatial repellent, 0.25 μg·cm^−2, after 48 h exposure
Mosquito = conditions: d-α-pinene
[1] = test system: female Cx. pipiens pallens
[2] = test system: Cx. pipiens pallens, Cx. pipiens quinquefasciatus

Row | SMILES | repellency (‡) (Ae. albopictus) [%] | repellency (†) (Ae. aegypti) [%] | repellency (female Ae. aegypti; 1.4 mg·cm^−2) | other results
1 | CC1=CCC(C(C)C)=CC1 [γ-Terpinene] | 72 | 60 |  | 
2 | CCCCCCCC/C=C\CCCCCCCC(=O)O [Oleic acid] |  |  |  | repellency (female Ae. aegypti; 0.4 mg·cm^−2, after 1 h): 0.4 mg · cm^−2 = 52% repellency after 1 h^a
3 | CC(C)=CCC/C(C)=C/CO [Geraniol] |  |  |  | (reversible) inhibition of host-seeking (female Ae. albopictus): spatial repellent: 0.25 μg · cm^−2 ca. 100% (reversible)
4 | CC1=CCC2CC1C2(C)C (stereo not drawn) [α-Pinene] |  |  |  | protection (Mosquito): d-α-pinene , 2 h protection
5 | CC1=CC=C(C(C)C)CC1 [α-Terpinene] | 55 | 68 | ^a1.4 mg · cm^−2 = 15% repellency | 
6 | CC1=CCC(O)(C(C)C)CC1 (centres unmarked) [Terpinen-4-ol] | 85 | 92 | ^a1.4 mg · cm^−2 = 83% repellency | 
7 | C=CCc1ccc(O)c(OC)c1 [Eugenol] |  |  |  | Repellency (in words) [1]: high repellency
8 | CC(C)=CCC/C(C)=C/C=O [Geranial] |  |  |  | blood-sucking by mosquitoes reduced by ([2]; at 0.2 mg·cm^−2, after 1 h): 10%; blood-sucking by mosquitoes reduced by ([2]; at 0.2 mg·cm^−2, after 2 h): 15%; blood-sucking by mosquitoes reduced by ([2]; at 0.2 mg·cm^−2, after 3 h): 18%
9 | C=CC(C)(O)CCC=C(C)C (racemic) [Linalool] |  |  | ^a1.4 mg (±)-linalool · cm^−2 = 67% repellency | 
10 | CC(C)=CCCC(C)CCO (centres unmarked) [Citronellol] |  |  |  | Repellency (in words) (female An. gambiae): repellent component; also recorded: feeding deterrent/repellent, spatial repellent/inhibitor
